Measurements as given in US20240209028A1, “CNP COMPOUNDS” (priority 2022, published 2024).
Starred links: 1 amine or outer side, 2 acyl side, 3 side chain; linkers in the order of their positions; H or OH if unused. Positions of bridges follow the written chain, without caps; N, C: chain ends. Residues, ends and D or L forms follow the SMILES beside them. *: point of attachment. C18 diacid = O=C(O)CCCCCCCCCCCCCCCCC(=O)*; γGlu = O=C(O)[C@H](CCC(=O)[*:2])N[*:1]; X1 = O=C(CCCCCCCCCCCCCCCCc1nnn[nH]1)*; AEEA = NCCOCCOCC(=O)O

Experiments:
[1] = PK of CNP compounds after i.v. and s.c. administration to rats; details: male, Sprague Dawley, in vivo, iv, rat, i.v., about 100 nmol/kg; for clearance: read-out: Cl (L/hr/kg), i.v. administration (converted); for half-life: read-out: T½ (hr), i.v. administration (converted)
Method in brief: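 Plasma exposure was quantified by protein precipitation and turboflow LC-MS/MS in SRM mode. Rats received either 100 nmol/kg intravenously or 300 nmol/kg subcutaneously, with sublingual blood taken at baseline and at points up to 72 h. Per-animal NCA gave clearance as Dose/AUCinf, and results are averaged over 4-6 animals.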

[2] = Thioflavin T (ThT) assay: lagtime and peptide recovery; assay type: physicochemical; details: assay terminated after 45 hours; for LagTime (h) at pH 6.5: ThT assay, pH 6.5, 37° C.; for LagTime (h) at pH 4.0: ThT, 37° C., shaking
Method in brief: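 ThT (final about 1 μM) was added to peptide supernatants at pH 4.0 and 6.5 and incubated at 37 °C with orbital shaking for 45 h. Fluorescence (ex 444/em 485 nm) was read every 20 min, and lag-time was taken as the time to onset of signal rise. Recovery is the RP-UPLC (215 nm) total peak area after vs. before incubation.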

## CC[C@H](C)[C@@H]1NC(=O)[C@H](CCCNC(=N)N)NC(=O)[C@H](CC(=O)O)NC(=O)[C@H](CC(C)C)NC(=O)[C@@H]2CCCN2C(=O)[C@H](CC(C)C)NC(=O)CNC(=O)[C@H](Cc2ccccc2)NC(=O)[C@@H](NC(=O)CNC(=O)[C@H](CCCCN)NC(=O)[C@H](CO)NC(=O)[C@H](CC(C)C)NC(=O)CNC(=O)[C@H](CCCCN)NC(=O)[C@H](CCCCN)NC(=O)[C@H](CCC(N)=O)NC(=O)[C@H](C)NC(=O)CNC(=O)[C@H](CCC(=O)O)NC(=O)[C@H](Cc2ccc(O)cc2)NC(=O)COCCOCCNC(=O)COCCOCCNC(=O)COCCOCCNC(=O)COCCOCCNC(=O)CC[C@H](NC(=O)CCCCCCCCCCCCCCCCC(=O)O)C(=O)O)CSSC[C@@H](C(=O)O)NC(=O)CNC(=O)[C@H](CC(C)C)NC(=O)CNC(=O)[C@H](CO)NC(=O)[C@H](CC(C)C)NC(=O)[C@H](CO)NC(=O)CNC1=O [compound 1375] ({C18 diacid-γGlu-AEEA-AEEA-AEEA-AEEA}-YEGAQKKGLSKGCFGLPLDRIGSLSGLGC-OH; disulfide 13-29; C-terminus assumed)
[1]
  clearance: 0.0057 L/h/kg
  half-life: 9.66 h
[2]
  LagTime (h) at pH 6.5: 45 h

## CC[C@H](C)[C@@H]1NC(=O)[C@H](CCCNC(=N)N)NC(=O)[C@H](CC(=O)O)NC(=O)[C@H](CC(C)C)NC(=O)[C@@H]2CCCN2C(=O)[C@H](CC(C)C)NC(=O)CNC(=O)[C@H](Cc2ccccc2)NC(=O)[C@@H](NC(=O)CNC(=O)[C@H](CO)NC(=O)[C@H](CO)NC(=O)[C@H](CC(C)C)NC(=O)CNC(=O)[C@H](CCCCN)NC(=O)[C@H](CCCCN)NC(=O)[C@H](CCC(N)=O)NC(=O)[C@H](C)NC(=O)CNC(=O)[C@H](CCC(=O)O)NC(=O)[C@H](Cc2ccc(O)cc2)NC(=O)CNC(=O)CNC(=O)CNC(=O)COCCOCCNC(=O)COCCOCCNC(=O)CC[C@H](NC(=O)CCCCCCCCCCCCCCCCC(=O)O)C(=O)O)CSSC[C@@H](C(=O)O)NC(=O)CNC(=O)[C@H](CC(C)C)NC(=O)CNC(=O)[C@H](CO)NC(=O)[C@H](CC(C)C)NC(=O)[C@H](CO)NC(=O)CNC1=O [compound 1378] ({C18 diacid-γGlu-AEEA-AEEA}-GGGYEGAQKKGLSSGCFGLPLDRIGSLSGLGC-OH; disulfide 16-32)
[1]
  clearance: 0.00926 L/h/kg
  half-life: 5.29 h
[2]
  LagTime (h) at pH 6.5: 2.5 h

## CC[C@H](C)[C@@H]1NC(=O)[C@H](CCCNC(=N)N)NC(=O)[C@H](CC(=O)O)NC(=O)[C@H](CC(C)C)NC(=O)[C@@H]2CCCN2C(=O)[C@H](CC(C)C)NC(=O)CNC(=O)[C@H](Cc2ccccc2)NC(=O)[C@@H](NC(=O)CNC(=O)[C@H](CCC(N)=O)NC(=O)[C@H](CO)NC(=O)[C@H](CO)NC(=O)CNC(=O)[C@H](Cc2c[nH]cn2)NC(=O)[C@H](Cc2c[nH]cn2)NC(=O)[C@H](CCC(N)=O)NC(=O)[C@H](C)NC(=O)CNC(=O)[C@H](Cc2c[nH]cn2)NC(=O)[C@H](Cc2ccc(O)cc2)NC(=O)[C@H](CCCCN)NC(=O)[C@H](Cc2c[nH]cn2)NC(=O)[C@H](C)NC(=O)[C@H](CCC(N)=O)NC(=O)[C@@H]2CCCN2C(=O)[C@H](Cc2c[nH]cn2)NC(=O)[C@H](CCC(=O)O)NC(=O)[C@H](CCC(N)=O)NC(=O)COCCOCCNC(=O)COCCOCCNC(=O)CC[C@H](NC(=O)CCCCCCCCCCCCCCCCC(=O)O)C(=O)O)CSSC[C@@H](C(=O)O)NC(=O)CNC(=O)[C@H](CC(C)C)NC(=O)CNC(=O)[C@H](CO)NC(=O)[C@H](CC(C)C)NC(=O)[C@H](CO)NC(=O)CNC1=O [compound 1381] ({C18 diacid-γGlu-AEEA-AEEA}-QEHPQAHKYHGAQHHGSSQGCFGLPLDRIGSLSGLGC-OH; disulfide 21-37)
[1]
  clearance: 0.00382 L/h/kg
  half-life: 15.2 h
[2]
  LagTime (h) at pH 4.0: 45 h

## CC[C@H](C)[C@@H]1NC(=O)[C@H](CCCNC(=N)N)NC(=O)[C@H](CC(=O)O)NC(=O)[C@H](CC(C)C)NC(=O)[C@@H]2CCCN2C(=O)[C@H](CC(C)C)NC(=O)CNC(=O)[C@H](Cc2ccccc2)NC(=O)[C@@H](NC(=O)CNC(=O)[C@H](CO)NC(=O)[C@H](CO)NC(=O)[C@H](CC(C)C)NC(=O)CNC(=O)[C@H](CCCCN)NC(=O)[C@H](CCCCN)NC(=O)[C@H](CCC(N)=O)NC(=O)[C@H](C)NC(=O)CNC(=O)[C@H](CCCCN)NC(=O)[C@H](Cc2ccc(O)cc2)NC(=O)[C@H](CCCCN)NC(=O)[C@H](CCCNC(=N)N)NC(=O)[C@H](C)NC(=O)[C@H](CCC(N)=O)NC(=O)[C@@H]2CCCN2C(=O)[C@H](Cc2c[nH]cn2)NC(=O)[C@H](CCC(=O)O)NC(=O)[C@H](CCC(N)=O)NC(=O)CC[C@H](NC(=O)CC[C@H](NC(=O)CC[C@H](NC(=O)CC[C@H](NC(=O)CCCCCCCCCCCCCCCCC(=O)O)C(=O)O)C(=O)O)C(=O)O)C(=O)O)CSSC[C@@H](C(=O)O)NC(=O)CNC(=O)[C@H](CC(C)C)NC(=O)CNC(=O)[C@H](CO)NC(=O)[C@H](CC(C)C)NC(=O)[C@H](CO)NC(=O)CNC1=O [compound 1389] ({C18 diacid-γGlu-γGlu-γGlu-γGlu}-QEHPQARKYKGAQKKGLSSGCFGLPLDRIGSLSGLGC-OH; disulfide 21-37)
[1]
  clearance: 0.00415 L/h/kg
  half-life: 14.6 h
[2]
  LagTime (h) at pH 4.0: 45 h

## CC[C@H](C)[C@@H]1NC(=O)[C@H](CCCNC(=N)N)NC(=O)[C@H](CC(=O)O)NC(=O)[C@H](CC(C)C)NC(=O)[C@@H]2CCCN2C(=O)[C@H](CC(C)C)NC(=O)CNC(=O)[C@H](Cc2ccccc2)NC(=O)[C@@H](NC(=O)CNC(=O)[C@H](CO)NC(=O)[C@H](CO)NC(=O)[C@H](CC(C)C)NC(=O)CNC(=O)[C@H](CCCCN)NC(=O)[C@H](CCCCN)NC(=O)[C@H](CCC(N)=O)NC(=O)[C@H](C)NC(=O)CNC(=O)[C@H](CCC(=O)O)NC(=O)[C@H](Cc2ccc(O)cc2)NC(=O)COCCOCCNC(=O)COCCOCCNC(=O)COCCOCCNC(=O)COCCOCCNC(=O)CC[C@H](NC(=O)CCCCCCCCCCCCCCCCC(=O)O)C(=O)O)CSSC[C@@H](C(=O)O)NC(=O)CNC(=O)[C@H](CC(C)C)NC(=O)CNC(=O)[C@H](CO)NC(=O)[C@H](CC(C)C)NC(=O)[C@H](CO)NC(=O)CNC1=O [compound 1392] ({C18 diacid-γGlu-AEEA-AEEA-AEEA-AEEA}-YEGAQKKGLSSGCFGLPLDRIGSLSGLGC-OH; disulfide 13-29)
[1]
  clearance: 0.00799 L/h/kg
  half-life: 5.72 h
[2]
  LagTime (h) at pH 6.5: 45 h

## CC[C@H](C)[C@@H]1NC(=O)[C@H](CCCNC(=N)N)NC(=O)[C@H](CC(=O)O)NC(=O)[C@H](CC(C)C)NC(=O)[C@@H]2CCCN2C(=O)[C@H](CC(C)C)NC(=O)CNC(=O)[C@H](Cc2ccccc2)NC(=O)[C@@H](NC(=O)CNC(=O)[C@H](CCC(N)=O)NC(=O)[C@H](CO)NC(=O)[C@H](CC(C)C)NC(=O)CNC(=O)[C@H](CO)NC(=O)[C@H](CCCCN)NC(=O)[C@H](CCC(N)=O)NC(=O)[C@H](C)NC(=O)CNC(=O)[C@H](Cc2c[nH]cn2)NC(=O)[C@H](Cc2ccc(O)cc2)NC(=O)[C@H](CCCCN)NC(=O)[C@H](CCCNC(=N)N)NC(=O)[C@H](C)NC(=O)COCCOCCNC(=O)COCCOCCNC(=O)CC[C@H](NC(=O)CC[C@H](NC(=O)CCCCCCCCCCCCCCCCc2nnn[nH]2)C(=O)O)C(=O)O)CSSC[C@@H](C(=O)O)NC(=O)CNC(=O)[C@H](CC(C)C)NC(=O)CNC(=O)[C@H](CO)NC(=O)[C@H](CC(C)C)NC(=O)[C@H](CO)NC(=O)CNC1=O [compound 1426] ({X1-γGlu-γGlu-AEEA-AEEA}-ARKYHGAQKSGLSQGCFGLPLDRIGSLSGLGC-OH; disulfide 16-32)
[1]
  clearance: 0.00348 L/h/kg
  half-life: 9.96 h
[2]
  LagTime (h) at pH 4.0: 0.33 h
